# Assay results published in patent publication US11542233B2, “Compounds, compositions and methods of use” (Aquinnah Pharmaceuticals, Inc., priority 2016, dated 2023).
# Tested on: TDP-43 aggregation in PC12 cells stably expressing GFP-tagged mutant TDP-43 (TDP-43^Q33IK::eGFP)
# Assay: In vitro efficacy assay: inhibition of TDP-43 inclusions, concentration-response, fluorescence microscopy
# Type: cell-based
# Details: Rattus norvegicus, PC-12, PC12 cells, 1 hour pre-treatment, 15 μM sodium arsenite for 23 hours, 10-point dose response curve
# How it was run: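 PC12 cells stably expressing TDP-43^Q33IK::eGFP pre-treated 1 h with compound, then stressed with 15 μM sodium arsenite for 23 h. Fluorescence microscopy gave the fraction of GFP-positive cells bearing aggregates; IC50 from concentration-response, reported in bins: A <100 nM, B 100–500 nM, C 500 nM–2 μM, D >2 μM.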
row,IC50 [nM],Compound
1,> 2000,CCN(C(=O)c1cc2ccccc2[nH]1)[C@@H]1CCC[C@@H](N[C@@H]2CCc3ccccc32)C1 [Compound 114]
2,< 100,CCN(C(=O)c1cc2ccccc2[nH]1)[C@H]1CCC[C@@H](NCCC2CC2)C1 [Compound 117]
3,100 to 500,CCN(C(=O)c1cc2ccccc2[nH]1)[C@H]1CCC[C@@H](N[C@@H]2CCc3cc(F)ccc32)C1 [Compound 125]
4,< 100,"COc1ccc(C(C)(C)N[C@@H]2CCC[C@H](N(CC(F)(F)F)C(=O)c3cc4ncccc4[nH]3)C2)cc1 [Compound 424, N-((1S,3R)-3-((2-(4-methoxyphenyl)propan-2-yl)amino)cyclohexyl)-N-(2,2,2-trifluoroethyl)-1H-pyrrolo[3,2-b]pyridine-2-carboxamide]"
5,500 to 2000,"CCN(C(=O)c1cc2ncccc2[nH]1)[C@H]1CCC[C@@H](N[C@H](c2ccccc2)C(F)(F)F)C1 (single isomer, unassigned) [Compound 416]"
6,< 100,"O=C(c1cc2ncccc2[nH]1)N(CC(F)(F)F)[C@H]1CCC[C@@H](NCc2cccc(F)c2)C1 [Compound 422, N-((1S,3R)-3-((3-fluorobenzyl)amino)cyclohexyl)-N-(2,2,2-trifluoroethyl)-1H-pyrrolo[3,2-b]pyridine-2-carboxamide]"
7,< 100,"CCN(C(=O)c1cc2cc(OC(F)(F)F)ccc2[nH]1)[C@H]1CCC[C@@H](NCc2ccccc2)C1 [Compound 542, N-((1S,3R)-3-(benzylamino)cyclohexyl)-N-ethyl-5-(trifluoromethoxy)-1H-indole-2-carboxamide]"
8,< 100,CCN(C(=O)c1nc2ccccc2[nH]1)[C@H]1CCC[C@@H](NCc2cc3ccccn3c2)C1 [Compound 493]
9,> 2000,CCN(C(=O)c1cc2ccccc2[nH]1)C1COC[C@@H](N[C@H]2CCc3ccccc32)C1 (some centres unmarked) [Compound 508]
10,100 to 500,"CCN(C(=O)c1cc2ccccc2[nH]1)[C@H]1COC[C@@H](NCc2ccccc2)C1 [Compound 300, N-((3R,5S)-5-(benzylamino)tetrahydro-2H-pyran-3-yl)-N-ethyl-1H-indole-2-carboxamide]"
11,500 to 2000,"CCN(C(=O)c1cc2ccccc2[nH]1)[C@H]1COC[C@H](N[C@@H]2CCc3ccccc32)C1 [Compound 506, N-((3R,5R)-5-(((R)-2,3-dihydro-1H-inden-1-yl)amino)tetrahydro-2H-pyran-3-yl)-N-ethyl-1H-indole-2-carboxamide]"
12,< 100,"[2H]C([2H])(N[C@@H]1CCC[C@H](N(CC)C(=O)c2cc3ccccc3[nH]2)C1)c1ccccc1 [Compound 521, N-ethyl-N-((1S,3R)-3-((phenylmethyl-d2)amino)cyclohexyl)-1H-indole-2-carboxamide]"
13,< 100,CCN(C(=O)c1cc2ccccc2[nH]1)[C@H]1CCC[C@@H](NCc2cc(C3CC3)on2)C1 [Compound 460]
14,100 to 500,CCN(C(=O)c1nc2ccccc2[nH]1)[C@H]1CCC[C@@H](NCc2ccc3oc(C)nc3c2)C1 [Compound 531]
15,500 to 2000,"CCN(C(=O)c1cc2ccccc2[nH]1)[C@H]1CCC[C@@H](NC2(c3ccccc3)COC2)C1 [Compound 318, N-ethyl-N-((1S,3R)-3-((3-phenyloxetan-3-yl)amino)cyclohexyl)-1H-indole-2-carboxamide]"
16,100 to 500,CCN(C(=O)c1cc2cnccc2[nH]1)[C@H]1CCC[C@@H](NCc2ccccc2)C1 [Compound 401]
17,< 100,CCN(C(=O)c1nc2ccccc2[nH]1)[C@H]1CCC[C@@H](NCc2nc3ccccc3s2)C1 [Compound 488]
18,< 100,CCN(C(=O)c1cc2ncccc2[nH]1)[C@H]1CCC[C@@H](NCc2ccc3ocnc3c2)C1 [Compound 443]
19,100 to 500,CCN(C(=O)c1cc2cc(S(C)(=O)=O)ccc2[nH]1)[C@H]1CCC[C@@H](NCc2ccccc2)C1 [Compound 546]
20,< 100,"CCN(C(=O)c1nc2ccccc2[nH]1)[C@H]1CCC[C@@H](NCc2ccccc2)C1 [Compound 400, N-((1S,3R)-3-(benzylamino)cyclohexyl)-N-ethyl-1H-benzo[d]imidazole-2-carboxamide]"
21,100 to 500,CCN(C(=O)c1cc2ccccc2[nH]1)[C@H]1CCC[C@@H](NCc2ccc(S(C)(=O)=O)cc2)C1 [Compound 432]
22,< 100,CCN(C(=O)c1cc2ccccc2[nH]1)[C@H]1CCC[C@@H](NCc2oc3ccccc3c2C)C1 [Compound 449]
23,< 100,CCN(C(=O)c1cc2ccccc2[nH]1)[C@H]1CCC[C@@H](NCc2cccc(OC(F)(F)F)c2)C1 [Compound 430]
24,100 to 500,"CCN(C(=O)c1cc2c([nH]1)CCCS2(=O)=O)[C@H]1CCC[C@@H](NCc2ccccc2)C1 [Compound 512, N-((1S,3R)-3-(benzylamino)cyclohexyl)-N-ethyl-1,5,6,7-tetrahydrothiopyrano[3,2-b]pyrrole-2-carboxamide 4,4-dioxide]"
25,< 100,CCN(C(=O)c1cc2ncccc2[nH]1)[C@H]1CCC[C@@H](NCc2cc(C(C)C)no2)C1 [Compound 470]
26,< 100,CCN(C(=O)c1cc2ccccc2[nH]1)[C@H]1CCC[C@@H](NCc2cnc(OC)nc2)C1 [Compound 132]
27,> 2000,CCN(C(=O)c1ccccn1)[C@H]1CCC[C@@H](NCc2ccccc2)C1 [Compound 404]

row,IC50 [nM],Compound
1,< 100,CCN(C(=O)c1nc2cc(F)ccc2[nH]1)[C@H]1CCC[C@@H](NCc2cccc(F)c2)C1 [Compound 525]
2,100 to 500,"CCN(C(=O)c1cc2ncccc2[nH]1)[C@H]1CCC[C@@H](NC2(c3ccccc3)CC2)C1 [Compound 418, N-ethyl-N-((1S,3R)-3-((1-phenylcyclopropyl)amino)cyclohexyl)-1H-pyrrolo[3,2-b]pyridine-2-carboxamide]"
3,> 2000,"CCN(C(=O)c1cc2ccccc2[nH]1)[C@@H]1C[C@@H](NCc2ccccc2)CS(=O)(=O)C1 [Compound 314, N-((3R,5R)-5-(benzylamino)-1,1-dioxidotetrahydro-2H-thiopyran-3-yl)-N-ethyl-1H-indole-2-carboxamide]"
4,> 2000,CCN(C(=O)c1ccccc1)[C@H]1CCC[C@@H](NCc2ccccc2)C1 [Compound 405]
5,< 100,CCN(C(=O)c1nc2c(OC)cccc2[nH]1)[C@H]1CCC[C@@H](NCc2ccccc2)C1 [Compound 484]
6,< 100,C#CCOc1ccc(CN[C@@H]2CCC[C@H](N(CC)C(=O)c3nc4c([N+](=O)[O-])cccc4[nH]3)C2)cc1 [Compound 565]
7,> 2000,"CCN(C(=O)c1cc2ccccc2[nH]1)[C@H]1COC[C@H](NCc2ccccc2)C1 [Compound 301, N-((3R,5R)-5-(benzylamino)tetrahydro-2H-pyran-3-yl)-N-ethyl-1H-indole-2-carboxamide]"
8,> 2000,O=C(c1cc2ccccc2[nH]1)N(CC(F)(F)F)C1CCC[C@H](NCc2cccnc2)C1 (some centres unmarked) [Compound 174]
9,< 100,CCN(C(=O)c1nc2cc(F)ccc2[nH]1)[C@H]1CCC[C@@H](NCc2oc3ccccc3c2C)C1 [Compound 524]
10,100 to 500,"CCN(C(=O)c1cc2ncccc2[nH]1)[C@H]1CCC[C@@H](N[C@@H](c2ccccc2)C(F)(F)F)C1 (single isomer, unassigned) [Compound 417]"
11,> 2000,CCN(C(=O)c1cc2ccccc2[nH]1)[C@H]1CCC[C@@H](NCc2c[nH]cn2)C1 [Compound 466]
12,< 100,"CCN(C(=O)c1nc2ccccc2[nH]1)[C@H]1CCC[C@@H](NCc2cc(C3CC3)on2)C1 [Compound 515, N-((1S,3R)-3-(((5-cyclopropylisoxazol-3-yl)methyl)amino)cyclohexyl)-N-ethyl-1H-benzo[d]imidazole-2-carboxamide]"
13,< 100,CCN(C(=O)c1cc2ccccc2[nH]1)C1CCC[C@@H](NCc2ccccc2)C1 (some centres unmarked) [Compound 101]
14,100 to 500,CCN(C(=O)c1cc2ccccc2[nH]1)[C@H]1CCC[C@@H](NCc2cnoc2)C1 [Compound 453]
15,> 2000,CCN(C(=O)c1cc2ccccc2[nH]1)[C@H]1CCC[C@@H](Nc2nnc(C)s2)C1 [Compound 500]
16,< 100,CCN(C(=O)c1cc2ccccc2[nH]1)C1CCC[C@@H](NCc2ccc(F)cc2)C1 (some centres unmarked) [Compound 111]
17,100 to 500,CCN(C(=O)c1cc2ccccc2[nH]1)[C@H]1CCC[C@@H](NCc2cccnc2)C1 [Compound 108]
18,100 to 500,CCN(C(=O)c1cc2ccccc2[nH]1)[C@H]1CCC[C@@H](NC2(c3ccccc3)CC2)C1 [Compound 419]
19,500 to 2000,CCN(C(=O)c1cc2ccccc2[nH]1)[C@H]1CCC[C@@H](N2CCc3ccccc3C2)C1 [Compound 115]
20,< 100,CCN(C(=O)c1cc2ncccc2[nH]1)[C@H]1CCC[C@@H](NCc2cc(C)no2)C1 [Compound 437]
21,< 100,CCN(C(=O)c1nc2cc(C3CC3)ccc2[nH]1)[C@H]1CCC[C@@H](NCc2ccccc2)C1 [Compound 541]
22,500 to 2000,"O=C(c1cc2ccccc2[nH]1)N(CC(F)(F)F)[C@H]1CCC[C@H](NCc2cccc(F)c2)C1 [Compound 172, N-((1S,3S)-3-((3-fluorobenzyl)amino)cyclohexyl)-N-(2,2,2-trifluoroethyl)-1H-indole-2-carboxamide]"
23,< 100,CCN(C(=O)c1cc2cc(F)ccc2[nH]1)[C@H]1CCC[C@@H](NCc2oc3ccccc3c2C#N)C1 [Compound 553]
24,< 100,"CCN(C(=O)c1cc2ncccc2[nH]1)[C@H]1CCC[C@@H](NCc2cccc(F)c2)C1 [Compound 150, N-ethyl-N-((1S,3R)-3-((3-fluorobenzyl)amino)cyclohexyl)-1H-pyrrolo[3,2-b]pyridine-2-carboxamide]"
25,500 to 2000,"C#Cc1ccc(C(=O)c2cccc(CN[C@@H]3CCC[C@H](N(CC)C(=O)c4cc5ccccc5[nH]4)C3)c2)cc1 [Compound 312, N-ethyl-N-((1S,3R)-3-((3-(4-ethynylbenzoyl)benzyl)-amino)cyclohexyl)-1H-indole-2-carboxamide]"
26,500 to 2000,CCN(C(=O)c1cc2ccccc2[nH]1)[C@H]1CCC[C@H](NCc2ccccc2)C1 [Compound 102]
